The record followed here is patent US4103085A, “7-(Syn-α-alkoxy-iminofurylacetamido-3-(2-carboxyalkyl-2,3-dihy dro-s-triazolo[4,3-b]pyridazin-3-on-6-ylthiomethyl)-3-cephem-4-carboxylic acids” (Bristol-Myers Company, priority 1977, dated 1978).

Values after ≈ are worked out from the molar mass of the structure shown. Counter-ions that a name gives are not always drawn.

Common to all, as to type: cell-based
Assay [1] has as its system S. aureus (3 strains). The assay can be described thus: In vitro activity, Mueller-Hinton agar, serial dilution method (Table 1). The conditions noted are these: Staphylococcus aureus, read-out: Geometric Mean of MIC.
Assay [2] relates to E. coli (7). The description is as above. The conditions noted are these: Escherichia coli, read-out: Geometric Mean of MIC.
The test system of assay [3] is Kl. pneumoniae (4). The description is as above. The conditions noted are these: Klebsiella pneumoniae, read-out: Geometric Mean of MIC. The text has this: (§1) In vitro Activity Using Mueller-Hinton Agar
(§2) By the Serial Dilution Method

In assay [4] the test system is Shig. (3), Serr. (1) (1), Sal. (2). The description is as above. The conditions noted are these: read-out: Geometric Mean of MIC.
Source text: as §1, §2

The test system of assay [5] is Proteus (6). The assay is described as above. The conditions noted are these: read-out: Geometric Mean of MIC.
For assay [6], the system named is B. anthracis (1) S. pyrogenes (5). The assay can be described thus: microbe, parasite or virus in culture. Particulars: Bacillus anthracis, read-out: Geometric Mean of MIC.
In assay [7] the test system is S. viridans (5). The assay can be described thus: In vitro activity, Mueller-Hinton agar, serial dilution method (Table 1). The conditions noted are these: Streptococcus viridans, read-out: Geometric Mean of MIC.
For assay [8], the system named is D. pneumoniae (5). The description is as above. Particulars: Streptococcus pneumoniae, read-out: Geometric Mean of MIC.
The subject of assay [9] is N. meningitidis (5). The description is as above. Particulars: Neisseria meningitidis, read-out: Geometric Mean of MIC.
For assay [10], the system named is N. gonorrhoeae (5). Described as above. Particulars: Neisseria gonorrhoeae, read-out: Geometric Mean of MIC.
Assay [11] concerns H. influenzae (7). The description is as above. The conditions noted are these: Haemophilus influenzae, read-out: Geometric Mean of MIC.
Assay [12] deals with E. cloacae. Nature of the assay: MICs in Mueller-Hinton agar (Table 2). The conditions noted are these: Enterobacter cloacae, 1 strain, read-out: Geometric Means of MIC's. The text has this: (§3) Geometric Means of MIC's Against 3 Strains
(§4) of S. aureus and 27 Strains of Gram-negative Bacteria
(§5) (mcg./ml., Mueller-Hinton Agar)

Assay [13] has as its system E. coli, Cephalosporin-R. Nature of the assay: MICs in Mueller-Hinton agar (Table 2). The conditions noted are these: Escherichia coli, 1 strain, read-out: Geometric Means of MIC's.
Source text: as §3, §4, §5

Assay [14] has as its system E. coli. Nature of the assay: MICs in Mueller-Hinton agar (Table 2). The conditions noted are these: Escherichia coli, 6 strains, read-out: Geometric Means of MIC's.
Source text: as §3, §4, §5

For assay [15], the system named is Indole (-) Proteus. Nature of the assay: MICs in Mueller-Hinton agar (Table 2). The conditions noted are these: 2 strains, read-out: Geometric Means of MIC's.
Source text: as §3, §4, §5

In assay [16] the test system is Indole(+) Proteus, Cephalosporin-R. The assay can be described thus: MICs in Mueller-Hinton agar (Table 2). The conditions noted are these: 2 strains, read-out: Geometric Means of MIC's.
Source text: as §3, §4, §5

Assay [17] deals with Indole(+) Proteus. The assay can be described thus: MICs in Mueller-Hinton agar (Table 2). Particulars: 3 strains, read-out: Geometric Means of MIC's.
Source text: as §3, §4, §5

In assay [18] the test system is K. pneumoniae. Nature of the assay: MICs in Mueller-Hinton agar (Table 2). Particulars: Klebsiella pneumoniae, 4 strains, read-out: Geometric Means of MIC's.
Source text: as §3, §4, §5

For assay [19], the system named is P. aeruginosa. The assay can be described thus: MICs in Mueller-Hinton agar (Table 2). The conditions noted are these: Pseudomonas aeruginosa, 2 strains, read-out: Geometric Means of MIC's.
Source text: as §3, §4, §5

Assay [20] deals with S. aureus, Penicillin-R. Nature of the assay: MICs in Mueller-Hinton agar (Table 2). Particulars: Staphylococcus aureus, 2 strains, read-out: Geometric Means of MIC's.
Source text: as §3, §4, §5

Assay [21] has as its system S. aureus. Nature of the assay: MICs in Mueller-Hinton agar (Table 2). Particulars: Staphylococcus aureus, 1 strain, read-out: Geometric Means of MIC's.
Source text: as §3, §4, §5

Assay [22] has as its system S. marcescens. Nature of the assay: MICs in Mueller-Hinton agar (Table 2). The conditions noted are these: Serratia marcescens, 1 strain, read-out: Geometric Means of MIC's.
Source text: as §3, §4, §5

Assay [23] deals with Shigella, Salmonella. Nature of the assay: MICs in Mueller-Hinton agar (Table 2). The conditions noted are these: 5 strains, read-out: Geometric Means of MIC's.
Source text: as §3, §4, §5

The test system of assay [24] is S. marcescens. The assay can be described thus: MICs against 18 strains of S. marcescens (Table 3). Particulars: Serratia marcescens, read-out: Geometric Means of MIC's. The text has this: Geometric Means of MIC's Against 18 Strains

Consider `CO/N=C(\C(=O)N[C@@H]1C(=O)N2C(C(=O)O)=C(CSc3ccc4nn(CC(=O)O)c(=O)n4n3)CS[C@H]12)c1ccco1` [BB-S511, 7-[(2Z)-2-Methoxyimino(fur-2-yl)acetamido]-3-(2-carboxymethyl-2,3-dihydro-s-triazolo[4,3-b]pyridazin-3-on-6-ylthiomethyl)-3-cephem-4-carboxylic Acid Disodium Salt], for which the MIC turned out to be 1.97 µg/mL in assay [1]; 0.58 µg/mL in [2]; 0.47 µg/mL in [3]; 1.11 µg/mL in assay [4]; 0.021 µg/mL in [5]; 0.032 µg/mL in assay [6]. Further, the MIC in assay [7] is 0.15 µg/mL; in assay [8], 0.037 µg/mL; in assay [9], 2.37 µg/mL; in assay [10], 1.36 µg/mL; in [11] it was 0.64 µg/mL; in assay [12] it was 3.1 µg/mL. The MIC in assay [13] was 6.3 µg/mL; in assay [14], 0.2 µg/mL; in assay [15], 0.1 µg/mL; in [16], 6.3 µg/mL; in assay [17] it was 0.05 µg/mL; in assay [18], 0.7 µg/mL. Also, the MIC in assay [19] is greater than 100 µg/mL; in assay [20], 0.6 µg/mL; in [21], 1.6 µg/mL; in [22] it was 25 µg/mL; in assay [23] it was 0.3 µg/mL; in [24], 5.4 µg/mL.
As for `CO/N=C(\C(=O)N[C@@H]1C(=O)N2C(C(=O)O)=C(COC(N)=O)CS[C@H]12)c1ccco1` [Cefuroxime, sodium 6R,7R-3-carbamoyloxymethyl-7-(2Z)-2-methoxyimino(fur-2-yl)acetamidoceph-3em-4-carboxylate, reference compound], the MIC in [1] was 1.24 µg/mL; in [2], 1.28 µg/mL; in [3], 3.1 µg/mL; in assay [4], 4.06 µg/mL; in assay [5] it was 0.88 µg/mL; in assay [6], 0.025 µg/mL. The MIC amounted to 0.1 µg/mL in [7]; 0.0125 µg/mL in [8]; 1.6 µg/mL in [9]; 0.4 µg/mL in assay [10]; 1.16 µg/mL in assay [11].
As for `CO/N=C(\C(=O)N[C@@H]1C(=O)N2C(C(=O)O)=C(CSc3ccc4nn(CCC(=O)O)c(=O)n4n3)CS[C@H]12)c1ccco1` [BB-S526, 7-[(2Z)-2-Methoxyimino(fur-2-yl)acetamido]-3-[2-(2-carboxyethyl)-2,3-dihydro-s-triazolo[4,3-b]pyridazin-3-on-6-ylthiomethyl]-3-cephem-4-carboxylic Acid Sodium Salt], the MIC in [1] was found to be 1.6 µg/mL; in assay [2] it was 0.78 µg/mL; in [3], 0.93 µg/mL; in [4], 2.41 µg/mL; in assay [5] it was 0.061 µg/mL; in assay [6] it was 0.032 µg/mL. In addition, the MIC stood at 0.4 µg/mL in assay [7]; 0.056 µg/mL in [8]; 3.6 µg/mL in assay [9]; 1.6 µg/mL in [10]; 0.71 µg/mL in assay [11].
For `NCc1ccccc1CC(=O)N[C@@H]1C(=O)N2C(C(=O)O)=C(CSc3nnnn3CC(=O)O)CS[C@H]12` [BL-S786, 7-[α-(2-aminomethylphenyl)acetamido]-3-[(1-carboxymethyltetrazol-5-lthio)methyl]-3-cephem-4-carboxylic acid, reference compound], the MIC was found to be 1.6 µg/mL (≈ 3.08 µM) in [12]; 12.5 µg/mL (≈ 24.1 µM) in assay [13]; 0.2 µg/mL (≈ 0.385 µM) in assay [14]; 0.2 µg/mL (≈ 0.385 µM) in assay [15]; 50.1 µg/mL (≈ 96.4 µM) in assay [16]; 0.3 µg/mL (≈ 0.577 µM) in [17]. The MIC in assay [18] is 0.3 µg/mL (≈ 0.577 µM); in assay [19], greater than 100 µg/mL; in [20] it was 1.6 µg/mL (≈ 3.08 µM); in [22], greater than 100 µg/mL; in [23], 0.5 µg/mL (≈ 0.962 µM); in [24], 85.9 µg/mL (≈ 165 µM).
